Results from US20170326188A1, “USES OF PORIA COCOS EPIDERMIS EXTRACT, PORICOIC ACID A, AND PORICOIC ACID B IN REGULATING BLOOD GLUCOSE LEVEL” (SINPHAR PHARMACEUTICAL CO., LTD., priority 2016, published 2017).

What was measured:
mouse myocytes (C2C12) = assay: Glucose oxidase assay of glucose uptake capability of myocytes; assay type: cell-based; settings: C2C12 cells, 0.1, 1 or 10 μg/ml, 2 hours; for relative glucose uptake capability of cells (glucose consumption) compared to the control group: BSA-DMEM medium containing 500 μg/ml glucose
Protocol: The differentiated mouse myocytes (C2C12, purchased from ATCC) and adipocytes (3T3-L1, purchased from ATCC) were cultivated in a Dulbecco's modified Eagle's medium (DMEM) containing 2% bovine serum albumin (BSA) but serum free for 16 hours respectively. Then, the cells were washed with Dulbecco's phosphate-buffered saline (D-PBS), and medium was replaced with a 0.2% BSA-DMEM medium containing 500 μg/ml glucose. The cells thus provided were used in the following experiments. C2C12 cells provided by [Preparation Examples] were divided into 5 groups and were respectively cultivated with the following mediums for 2 hours: • 1. Group I: a BSA-DMEM medium containing 500 μg/ml glucose. • 2. Group II: a BSA-DMEM medium containing 500 μg/ml glucose and 100 nM insulin. • 3. Group III: a BSA-DMEM medium containing 500 μg/ml glucose and 0.1 μg/ml Poria cocos epidermis extract provided by [Preparation Example A-2]. • 4. Group IV: a BSA-DMEM medium containing 500 μg/ml glucose and 1 μg/ml Poria cocos epidermis extract provided by [Preparation Example A-2]. • 5. Group V: a BSA-DMEM medium containing 500 μg/ml glucose and 10 μg/ml Poria cocos epidermis extract provided by [Preparation Example A-2]. Thereafter, the content of glucose in the medium of each group was determined by a glucose oxidase assay to measure the level of glucose consumption (representing the glucose uptake capability of cells) of each group. Finally, the results of the control group (i.e., cells being cultivated with the medium of Group I) was served as a basis to calculate the relative glucose uptake capabilities of other groups. C2C12 cells provided by [Preparation Examples] were divided into 8 groups and were respectively cultivated with the following mediums for 2 hours: • 1. Group i: a BSA-DMEM medium containing 500 μg/ml glucose. • 2. […] Then, the content of glucose in the medium of each group was determined by a glucose oxidase assay to measure the level of glucose consumption of each group (representing the glucose uptake capability of cells). […]

[1] = tested on: mouse adipocytes (3T3-L1); assay: Glucose oxidase assay of glucose uptake capability of adipocytes; assay type: cell-based; settings: 2 hours; for relative glucose uptake capability of cells (glucose consumption) compared to the control group: 3T3-L1 cells, 0.1, 1 or 10 μg/ml, BSA-DMEM medium containing 500 μg/ml glucose
Protocol: The differentiated mouse myocytes (C2C12, purchased from ATCC) and adipocytes (3T3-L1, purchased from ATCC) were cultivated in a Dulbecco's modified Eagle's medium (DMEM) containing 2% bovine serum albumin (BSA) but serum free for 16 hours respectively. Then, the cells were washed with Dulbecco's phosphate-buffered saline (D-PBS), and medium was replaced with a 0.2% BSA-DMEM medium containing 500 μg/ml glucose. The cells thus provided were used in the following experiments. 3T3-L1 cells provided by [Preparation Examples] were divided into 5 groups and were respectively cultivated with the mediums of Groups I to V described in Example 1 (1-1) for 2 hours. Then, the content of glucose in the medium of each group were determined by a glucose oxidase assay to measure the level of glucose consumption of each group (representing the glucose uptake capability of cells). Finally, the results of the control group (i.e., cells being cultivated with the medium of Group I) was served as a basis to calculate the relative glucose uptake capabilities of other groups. 3T3-L1 cells provided by [Preparation Examples] were divided into 8 groups and were respectively cultivated with the mediums of Groups i to v as described in Example 2 (2-1) for 2 hours. Then, the content of glucose in the medium of each group was determined by a glucose oxidase assay to measure the level of glucose consumption of each group (representing the glucose uptake capability of cells). Finally, the results of the control group (i.e., cells being cultivated with the medium of Group i) was served as a basis to calculate the relative glucose uptake capabilities of other groups. FIG. 4A comprises the results of the control group, the positive control group (i.e., cells being cultivated with the medium of Group ii), and the groups being treated with poricoic acid A (i.e., cells being cultivated with the medium of Group iii, iv or v which contains poricoic acid A). FIG. 4B comprises the results of the control group, the positive control group, and the group being treated with poricoic acid B (i.e., cells being cultivated with the medium of Group iii, iv or v which contains poricoic acid B).

SMILES	relative glucose uptake capability of cells (glucose consumption) compared to the control group (mouse myocytes (C2C12))	relative glucose uptake capability of cells (glucose consumption) compared to the control group [1]	glucose uptake capability compared to the positive control group (mouse myocytes (C2C12); positive control 100 nM insulin)	increment in glucose uptake capability compared to the control group, medium dosage group ([1]; 3T3-L1 cells, 1 μg/ml)	increment in glucose uptake capability compared to the control group, high dosage group ([1]; 3T3-L1 cells, 10 μg/ml)
C=C(C)[C@@H]1CC=C2C(=CC[C@]3(C)[C@@H]([C@@H](CCC=C(C)C)C(=O)O)[C@H](O)C[C@@]23C)[C@@]1(C)CCC(=O)O [poricoic acid B, Poricoic acid B]	significantly increased	significantly increased			
C=C(CC[C@@H](C(=O)O)[C@H]1[C@H](O)C[C@@]2(C)C3=CC[C@@H](C(=C)C)[C@](C)(CCC(=O)O)C3=CC[C@]12C)C(C)C [poricoic acid A, Poricoic acid A]	significantly increased	exhibited an increment in the glucose uptake capabilities	equivalent to that of the positive control group	significant	significant
